In the OligoGym collection:
Oligonucleotides are written 5' to 3', each unit as a sugar letter and its base; * is a phosphorothioate linkage, no mark a phosphodiester; rarer units and linkages stand in square brackets, end groups in braces. Plain capitals give the bases only. Oligonucleotides are given in HELM: sugar(base)linkage, 5' to 3'; d 2'-deoxyribose, r ribose, m 2'-O-methylribose, p phosphate. ss, as = sense and antisense strand; d = 2'-deoxy (DNA); r = 2'-OH (RNA)

These substances were tested against UBE2D3 (assay: reporter assay of Huesken 2005). Conditions: siRNA.
Also: test concentration or dose not given here.

Substance	normalised inhibition (eCFP-eYFP dual reporter)
RNA1{r(A)p.r(A)p.r(G)p.r(C)p.r(C)p.r(A)p.r(C)p.r(A)p.r(A)p.r(U)p.r(U)p.r(A)p.r(U)p.r(G)p.r(G)p.r(G)p.r(A)p.r(C)p.r(C)p.d(T)p.d(T)}|RNA2{r(G)p.r(G)p.r(U)p.r(C)p.r(C)p.r(C)p.r(A)p.r(U)p.r(A)p.r(A)p.r(U)p.r(U)p.r(G)p.r(U)p.r(G)p.r(G)p.r(C)p.r(U)p.r(U)p.d(G)p.d(C)}$$$RNA1{StrandType:ss}|RNA2{StrandType:as}$	52%
RNA1{r(A)p.r(A)p.r(G)p.r(G)p.r(U)p.r(U)p.r(G)p.r(C)p.r(A)p.r(U)p.r(U)p.r(U)p.r(A)p.r(C)p.r(A)p.r(A)p.r(C)p.r(A)p.r(A)p.d(T)p.d(T)}|RNA2{r(U)p.r(U)p.r(G)p.r(U)p.r(U)p.r(G)p.r(U)p.r(A)p.r(A)p.r(A)p.r(U)p.r(G)p.r(C)p.r(A)p.r(A)p.r(C)p.r(C)p.r(U)p.r(U)p.d(A)p.d(G)}$$$RNA1{StrandType:ss}|RNA2{StrandType:as}$	83%
RNA1{r(A)p.r(A)p.r(U)p.r(G)p.r(A)p.r(C)p.r(A)p.r(G)p.r(C)p.r(C)p.r(C)p.r(A)p.r(U)p.r(A)p.r(U)p.r(C)p.r(A)p.r(A)p.r(G)p.d(T)p.d(T)}|RNA2{r(C)p.r(U)p.r(U)p.r(G)p.r(A)p.r(U)p.r(A)p.r(U)p.r(G)p.r(G)p.r(G)p.r(C)p.r(U)p.r(G)p.r(U)p.r(C)p.r(A)p.r(U)p.r(U)p.d(A)p.d(G)}$$$RNA1{StrandType:ss}|RNA2{StrandType:as}$	80%
RNA1{r(A)p.r(A)p.r(U)p.r(U)p.r(C)p.r(A)p.r(U)p.r(U)p.r(U)p.r(U)p.r(C)p.r(C)p.r(U)p.r(A)p.r(C)p.r(A)p.r(G)p.r(A)p.r(C)p.d(T)p.d(T)}|RNA2{r(G)p.r(U)p.r(C)p.r(U)p.r(G)p.r(U)p.r(A)p.r(G)p.r(G)p.r(A)p.r(A)p.r(A)p.r(A)p.r(U)p.r(G)p.r(A)p.r(A)p.r(U)p.r(U)p.d(G)p.d(T)}$$$RNA1{StrandType:ss}|RNA2{StrandType:as}$	62.3%
RNA1{r(A)p.r(C)p.r(A)p.r(A)p.r(U)p.r(U)p.r(C)p.r(A)p.r(U)p.r(U)p.r(U)p.r(U)p.r(C)p.r(C)p.r(U)p.r(A)p.r(C)p.r(A)p.r(G)p.d(T)p.d(T)}|RNA2{r(C)p.r(U)p.r(G)p.r(U)p.r(A)p.r(G)p.r(G)p.r(A)p.r(A)p.r(A)p.r(A)p.r(U)p.r(G)p.r(A)p.r(A)p.r(U)p.r(U)p.r(G)p.r(U)p.d(C)p.d(A)}$$$RNA1{StrandType:ss}|RNA2{StrandType:as}$	76.2%
RNA1{r(A)p.r(C)p.r(G)p.r(G)p.r(A)p.r(U)p.r(C)p.r(U)p.r(A)p.r(U)p.r(A)p.r(A)p.r(A)p.r(A)p.r(C)p.r(A)p.r(G)p.r(A)p.r(C)p.d(T)p.d(T)}|RNA2{r(G)p.r(U)p.r(C)p.r(U)p.r(G)p.r(U)p.r(U)p.r(U)p.r(U)p.r(A)p.r(U)p.r(A)p.r(G)p.r(A)p.r(U)p.r(C)p.r(C)p.r(G)p.r(U)p.d(G)p.d(C)}$$$RNA1{StrandType:ss}|RNA2{StrandType:as}$	68.3%

The substances below were run against UBE2W (assay: reporter assay of Huesken 2005). Conditions: siRNA.

Substance	normalised inhibition (eCFP-eYFP dual reporter)
sense rGrArGrArArGrArGrUrGrUrUrCrArArArArUrUdTdT / antisense rArArUrUrUrUrGrArArCrArCrUrCrUrUrCrUrCdAdT	116%
sense rGrCrArArGrGrArArArArGrArGrArCrGrArCrCdTdT / antisense rGrGrUrCrGrUrCrUrCrUrUrUrUrCrCrUrUrGrCdAdG	112%
sense rGrCrGrCrUrCrUrCrArGrUrCrCrArArUrCrArGdTdT / antisense rCrUrGrArUrUrGrGrArCrUrGrArGrArGrCrGrCdTdG	109%
sense rGrGrUrCrArUrGrUrUrUrArCrUrGrGrUrGrArAdTdT / antisense rUrUrCrArCrCrArGrUrArArArCrArUrGrArCrCdTdG	103%
sense rGrUrGrArArArArUrArUrUrCrCrUrGrUrUrCrAdTdT / antisense rUrGrArArCrArGrGrArArUrArUrUrUrUrCrArCdCdA	82%
sense rGrUrGrCrGrArArCrArUrGrUrArArCrArArGrAdTdT / antisense rUrCrUrUrGrUrUrArCrArUrGrUrUrCrGrCrArCdAdT	125%
sense rGrUrUrCrArArArArUrUrCrArArUrUrArCrArCdTdT / antisense rGrUrGrUrArArUrUrGrArArUrUrUrUrGrArArCdAdC	73.6%
sense rGrUrUrCrArUrCrCrUrCrArUrGrUrUrUrArUrAdTdT / antisense rUrArUrArArArCrArUrGrArGrGrArUrGrArArCdAdG	105%
sense rUrArArCrArArGrArArUrCrCrArArArGrArArAdTdT / antisense rUrUrUrCrUrUrUrGrGrArUrUrCrUrUrGrUrUrAdCdA	115%
sense rUrArArCrArGrArArGrArCrUrGrGrUrCrCrCrCdTdT / antisense rGrGrGrGrArCrCrArGrUrCrUrUrCrUrGrUrUrAdGdA	64.7%
sense rUrArCrCrUrUrArUrArUrGrArArGrGrGrGrArAdTdT / antisense rUrUrCrCrCrCrUrUrCrArUrArUrArArGrGrUrAdCdC	111%
sense rUrArCrUrGrGrUrGrArArArArUrArUrUrCrCrUdTdT / antisense rArGrGrArArUrArUrUrUrUrCrArCrCrArGrUrAdAdA	94.4%
sense rUrArGrArCrArUrGrGrArArGrGrUrGrCrArCrCdTdT / antisense rGrGrUrGrCrArCrCrUrUrCrCrArUrGrUrCrUrAdCdA	38.9%
sense rUrArUrCrCrArUrUrCrUrArArCrArGrArArGrAdTdT / antisense rUrCrUrUrCrUrGrUrUrArGrArArUrGrGrArUrAdAdA	83.9%
sense rUrArUrCrUrGrUrUrUrArUrCrCrArUrUrCrUrAdTdT / antisense rUrArGrArArUrGrGrArUrArArArCrArGrArUrAdTdG	85.9%
sense rUrArUrUrCrCrUrGrUrUrCrArUrCrCrUrCrArUdTdT / antisense rArUrGrArGrGrArUrGrArArCrArGrGrArArUrAdTdT	104%
sense rUrCrArUrCrCrUrCrArUrGrUrUrUrArUrArGrCdTdT / antisense rGrCrUrArUrArArArCrArUrGrArGrGrArUrGrAdAdC	78.8%
sense rUrCrCrArArUrCrArGrUrUrUrGrUrCrUrUrArGdTdT / antisense rCrUrArArGrArCrArArArCrUrGrArUrUrGrGrAdCdT	85%

Substance	normalised inhibition (eCFP-eYFP dual reporter)
sense rUrCrCrArUrUrCrUrArArCrArGrArArGrArCrUdTdT / antisense rArGrUrCrUrUrCrUrGrUrUrArGrArArUrGrGrAdTdA	64.1%
sense rUrCrCrUrGrUrUrCrArUrCrCrUrCrArUrGrUrUdTdT / antisense rArArCrArUrGrArGrGrArUrGrArArCrArGrGrAdAdT	108%
sense rUrCrCrUrUrUrUrGrArCrUrCrUrCrCrUrCrArGdTdT / antisense rCrUrGrArGrGrArGrArGrUrCrArArArArGrGrAdTdA	78.4%
sense rUrCrGrArUrArUrCrCrUrUrUrUrGrArCrUrCrUdTdT / antisense rArGrArGrUrCrArArArArGrGrArUrArUrCrGrAdCdT	74.7%
sense rUrCrUrArArCrArGrArArGrArCrUrGrGrUrCrCdTdT / antisense rGrGrArCrCrArGrUrCrUrUrCrUrGrUrUrArGrAdAdT	73.3%
sense rUrGrArCrCrUrUrArArArUrGrArGrArArGrArGdTdT / antisense rCrUrCrUrUrCrUrCrArUrUrUrArArGrGrUrCrAdTdT	75%
sense rUrGrCrArCrCrArGrGrUrArCrCrUrUrArUrArUdTdT / antisense rArUrArUrArArGrGrUrArCrCrUrGrGrUrGrCrAdCdC	78%
sense rUrGrCrGrArArCrArUrGrUrArArCrArArGrArAdTdT / antisense rUrUrCrUrUrGrUrUrArCrArUrGrUrUrCrGrCrAdCdA	104%
sense rUrGrCrUrUrUrCrCrArGrCrUrGrCrArArGrGrAdTdT / antisense rUrCrCrUrUrGrCrArGrCrUrGrGrArArArGrCrAdTdG	110%
sense rUrGrGrArArUrGrArCrCrUrUrArArArUrGrArGdTdT / antisense rCrUrCrArUrUrUrArArGrGrUrCrArUrUrCrCrAdGdG	96.4%
sense rUrGrGrUrGrArArArArUrArUrUrCrCrUrGrUrUdTdT / antisense rArArCrArGrGrArArUrArUrUrUrUrCrArCrCrAdGdT	115%
sense rUrGrUrUrUrArUrCrCrArUrUrCrUrArArCrArGdTdT / antisense rCrUrGrUrUrArGrArArUrGrGrArUrArArArCrAdGdA	66.2%
sense rUrUrArArArUrUrUrArGrUrArGrUrCrGrArUrAdTdT / antisense rUrArUrCrGrArCrUrArCrUrArArArUrUrUrArAdAdT	79.9%
sense rUrUrArCrArCrArGrUrGrGrArUrUrGrUrArGrAdTdT / antisense rUrCrUrArCrArArUrCrCrArCrUrGrUrGrUrArAdTdT	92.6%
sense rUrUrCrCrUrGrUrUrCrArUrCrCrUrCrArUrGrUdTdT / antisense rArCrArUrGrArGrGrArUrGrArArCrArGrGrArAdTdA	73%
sense rUrUrUrArArArUrUrUrArGrUrArGrUrCrGrArUdTdT / antisense rArUrCrGrArCrUrArCrUrArArArUrUrUrArArAdTdA	88%
sense rUrUrUrArCrUrGrGrUrGrArArArArUrArUrUrCdTdT / antisense rGrArArUrArUrUrUrUrCrArCrCrArGrUrArArAdCdA	91.2%
sense rUrUrUrUrGrArCrUrCrUrCrCrUrCrArGrGrUrCdTdT / antisense rGrArCrCrUrGrArGrGrArGrArGrUrCrArArArAdGdG	95%
